These molecules were tested against p38a activated, mitogen-activated protein kinase-activated protein kinase 2 (MAPKAP-K2 or MK2) enzyme (Homo sapiens (Human), UniProt P49137) (assay: MK2 Omnia continuous-read kinase assay for compound potency). Details: [MK-2]=0.4 nM, [ATP]=10 μM, [ST3-Sox]=10 μM; room temperature.
Assay type: biochemical
Procedure, shortened: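 Continuous Sox-peptide fluorescence read (ex360/em485) every 71 s over 2 h at room temperature. Reactions: 10 μM each of ATP (at apparent Km) and S/T3-Sox, 0.4 nM p38a-activated MK2, pH 7.5 Tris/MgCl2 buffer. Initial rates yield % inhibition and IC50; single-exponential kobs values yield apparent kinact/KI.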

Chain of p38a activated, mitogen-activated protein kinase-activated protein kinase 2 (MAPKAP-K2 or MK2) enzyme (P49137 whole entry): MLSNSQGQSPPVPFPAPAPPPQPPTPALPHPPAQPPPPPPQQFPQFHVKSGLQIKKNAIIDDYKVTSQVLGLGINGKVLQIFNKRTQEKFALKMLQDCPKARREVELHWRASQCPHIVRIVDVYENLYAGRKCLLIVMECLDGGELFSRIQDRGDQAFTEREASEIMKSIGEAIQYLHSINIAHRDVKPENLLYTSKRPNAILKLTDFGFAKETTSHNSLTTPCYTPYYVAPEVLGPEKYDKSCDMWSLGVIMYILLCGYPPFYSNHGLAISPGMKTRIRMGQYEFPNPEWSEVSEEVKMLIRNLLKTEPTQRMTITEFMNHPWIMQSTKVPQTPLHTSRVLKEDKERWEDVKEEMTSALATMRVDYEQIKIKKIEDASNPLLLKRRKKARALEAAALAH

IC50 [nM] | SMILES
106 | C=Cc1cc(-c2ccc3c(ccc4sc5c(c43)NC[C@@H](C)NC5=O)n2)c(F)c(CN2CCOCC2)n1 [Example I-198, (R)-3-(3-fluoro-2-(morpholinomethyl)-6-vinylpyridin-4-yl)-10-methyl-9,10,11,12-tetrahydro-8H-[1,4]diazepino[5′,6′:4,5]thieno[3,2-f]quinolin-8-one]
10 | C=Cc1cc(-c2ccc3c(ccc4sc5c(c43)NC[C@@H](C)NC5=O)n2)cc(N2CCNCC2)n1 [Example I-175, (R)-10-methyl-3-(2-(piperazin-1-yl)-6-vinylpyridin-4-yl)-9,10,11,12-tetrahydro-8H-[1,4]diazepino[5′,6′:4,5]thieno[3,2-f]quinolin-8-one]
1000 | C=C(C)c1ncc(COCC)c(-c2ccc3c(ccc4sc5c(c43)NC[C@@H](C)NC5=O)n2)n1 [Example I-50, (R)-3-(5-(ethoxymethyl)-2-(prop-1-en-2-yl)pyrimidin-4-yl)-10-methyl-9,10,11,12-tetrahydro-8H-[1,4]diazepino[5′,6′:4,5]thieno[3,2-f]quinolin-8-one]
4 | C=Cc1cc(-c2ccc3c(ccc4sc5c(c43)NC[C@@H](C)NC5=O)n2)c(C(F)F)cn1 [Example I-130, (R)-3-(5-(difluoromethyl)-2-vinylpyridin-4-yl)-10-methyl-9,10,11,12-tetrahydro-8H-[1,4]diazepino[5′,6′:4,5]thieno[3,2-f]quinolin-8-one]
1 | C=Cc1cc(-c2ccc3c(ccc4sc5c(c43)NC[C@@H](C)NC5=O)n2)ccn1 [Example I-55, (R)-10-methyl-3-(2-vinylpyridin-4-yl)-9,10,11,12-tetrahydro-8H-[1,4]diazepino[5′,6′:4,5]thieno[3,2-f]quinolin-8-one]
10 | C=C(C)c1cc(-c2ccc3c(ccc4sc5c(c43)NC[C@@H](C)NC5=O)n2)nc(COCC)n1 [Example I-37, (R)-3-(2-(ethoxymethyl)-6-(prop-1-en-2-yl)pyrimidin-4-yl)-10-methyl-9,10,11,12-tetrahydro-8H-[1,4]diazepino[5′,6′:4,5]thieno[3,2-f]quinolin-8-one]
283 | C[C@@H]1CNc2c(sc3ccc4nc(-c5cc(CN6CCN(C)CC6)nc(Cl)n5)ccc4c23)C(=O)N1 [Example I-87, (R)-3-(2-chloro-6-((4-methylpiperazin-1-yl)methyl)pyrimidin-4-yl)-10-methyl-9,10,11,12-tetrahydro-8H-[1,4]diazepino[5′,6′:4,5]thieno[3,2-f]quinolin-8-one]
1000 | C=Cc1nc(C)n(-c2ccc3c(ccc4sc5c(c43)NC[C@@H](C)NC5=O)n2)n1 [Example I-261, (R)-10-methyl-3-(5-methyl-3-vinyl-1H-1,2,4-triazol-1-yl)-9,10,11,12-tetrahydro-8H-[1,4]diazepino[5′,6′:4,5]thieno[3,2-f]quinolin-8-one]
192 | C=Cc1nc(Cl)c(Cl)n1-c1ccc2c(ccc3sc4c(c32)NC[C@@H](C)NC4=O)n1 [Example I-251, (R)-3-(4,5-dichloro-2-vinyl-1H-imidazol-1-yl)-10-methyl-9,10,11,12-tetrahydro-8H-[1,4]diazepino[5′,6′:4,5]thieno[3,2-f]quinolin-8-one]
6 | C=C(CN(C)C)c1cc(-c2ccc3c(ccc4sc5c(c43)NC[C@@H](C)NC5=O)n2)ccn1 [Example I-117, (R)-3-(2-(3-(dimethylamino)prop-1-en-2-yl)pyridin-4-yl)-10-methyl-9,10,11,12-tetrahydro-8H-[1,4]diazepino[5′,6′:4,5]thieno[3,2-f]quinolin-8-one]
245 | C=Cc1ncc(OC)c(-c2ccc3c(ccc4sc5c(c43)NC[C@@H](C)NC5=O)n2)n1 [Example I-32, (R)-3-(5-methoxy-2-vinylpyrimidin-4-yl)-10-methyl-9,10,11,12-tetrahydro-8H-[1,4]diazepino[5′,6′:4,5]thieno[3,2-f]quinolin-8-one]
285 | C=Cc1nc(-c2ccc3c(ccc4sc5c(c43)NC[C@@H](C)NC5=O)n2)nn1C [Example I-208, (R)-10-methyl-3-(1-methyl-5-vinyl-1H-1,2,4-triazol-3-yl)-9,10,11,12-tetrahydro-8H-[1,4]diazepino[5′,6′:4,5]thieno[3,2-f]quinolin-8-one]
526 | C#Cc1nc2c(c(-c3ccc4c(ccc5sc6c(c54)NC[C@@H](C)NC6=O)n3)n1)CN(C)CC2 [Example I-193, (R)-3-(2-ethynyl-6-methyl-5,6,7,8-tetrahydropyrido[4,3-d]pyrimidin-4-yl)-10-methyl-9,10,11,12-tetrahydro-8H-[1,4]diazepino[5′,6′:4,5]thieno[3,2-f]quinolin-8-one]
25 | C#Cc1cc(-c2ccc3c(ccc4sc5c(c43)NC[C@@H](C)NC5=O)n2)cc(CN2C[C@@H](C)O[C@H](C)C2)n1 [Example I-188, (R)-3-(2-(((2R,6R)-2,6-dimethylmorpholino)methyl)-6-ethynylpyridin-4-yl)-10-methyl-9,10,11,12-tetrahydro-8H-[1,4]diazepino[5′,6′:4,5]thieno[3,2-f]quinolin-8-one]
17 | C#Cc1cc(-c2ccc3c(ccc4sc5c(c43)NC[C@@H](C)NC5=O)n2)c(C(F)F)cn1 [Example I-92, (R)-3-(5-(difluoromethyl)-2-ethynylpyridin-4-yl)-10-methyl-9,10,11,12-tetrahydro-8H-[1,4]diazepino[5′,6′:4,5]thieno[3,2-f]quinolin-8-one]
210 | C/C=C/c1cc(-c2ccc3c(ccc4sc5c(c43)NC[C@@H](C)NC5=O)n2)c(C)cn1 [Example I-265, (R,E)-10-methyl-3-(5-methyl-2-(prop-1-en-1-yl)pyridin-4-yl)-9,10,11,12-tetrahydro-8H-[1,4]diazepino[5′,6′:4,5]thieno[3,2-f]quinolin-8-one]
5 | C=Cc1cc(-c2ccc3c(ccc4sc5c(c43)NC[C@@H](C)NC5=O)n2)c(C2CC2)cn1 [Example I-196, (R)-3-(5-cyclopropyl-2-vinylpyridin-4-yl)-10-methyl-9,10,11,12-tetrahydro-8H-[1,4]diazepino[5′,6′:4,5]thieno[3,2-f]quinolin-8-one]
58 | C#Cc1nc(-c2ccc3c(ccc4sc5c(c43)NC[C@@H](C)NC5=O)n2)cc(N2CCN(C)CC2)n1 [Example I-60, (R)-3-(2-ethynyl-6-(4-methylpiperazin-1-yl)pyrimidin-4-yl)-10-methyl-9,10,11,12-tetrahydro-8H-[1,4]diazepino[5′,6′:4,5]thieno[3,2-f]quinolin-8-one]
107 | C=Cc1cc(-c2ccc3c(ccc4sc5c(c43)NC[C@@H](C)NC5=O)n2)cc(N2CCC(COC)CC2)n1 [Example I-240, (R)-3-(2-(4-(methoxymethyl)piperidin-1-yl)-6-vinylpyridin-4-yl)-10-methyl-9,10,11,12-tetrahydro-8H-[1,4]diazepino[5′,6′:4,5]thieno[3,2-f]quinolin-8-one]
185 | C#Cc1cc(-c2ccc3c(ccc4sc5c(c43)NC[C@@H](C)NC5=O)n2)cc(N2CCCCC2)n1 [Example I-178, (R)-3-(2-ethynyl-6-(piperidin-1-yl)pyridin-4-yl)-10-methyl-9,10,11,12-tetrahydro-8H-[1,4]diazepino[5′,6′:4,5]thieno[3,2-f]quinolin-8-one]
